Data published in patent publication US20260166128A1, “HUMAN AMYLIN ANALOG, AND DERIVATIVE THEREOF AND USE THEREOF” (priority 2022, published 2026).
pEC50: −log10 of the molar value. Numbered stars: 1 amine (or outer) side, 2 acyl side, 3 side chain; on linkers, the order of the positions; unused ones are H or OH. Bridge positions count the residues as written; N and C are the ends. Square brackets hold non-standard residues; d marks the D form. Peptide text beside a SMILES is read from it. * marks the point of attachment. C20 diacid = O=C(O)CCCCCCCCCCCCCCCCCCC(=O)*; γGlu = O=C(O)[C@H](CCC(=O)[*:2])N[*:1]; Cit = NC(=O)NCCC[C@H](N)C(=O)O; Orn = NCCC[C@H](N)C(=O)O; Dab = NCC[C@H](N)C(=O)O; Dap = NC[C@H](N)C(=O)O

These compounds were tested against T1, human amylin receptor (Homo sapiens, UniProt O60896+P30988) (assay: Luciferase assay of amylin derivatives in amylin receptor/CRE-luc CHO cell line). Conditions: CHO-K1/Ga15/AMY3 CRE-luc cells, 24 hours incubation, F12 medium containing 10% FBS; read-out: EC50.
T1 construct: host or cells: CHO-K1/Ga15/AMY3 cells, further stably transfected with a CRE-luciferase plasmid
T1 sequence (P30988 25-474): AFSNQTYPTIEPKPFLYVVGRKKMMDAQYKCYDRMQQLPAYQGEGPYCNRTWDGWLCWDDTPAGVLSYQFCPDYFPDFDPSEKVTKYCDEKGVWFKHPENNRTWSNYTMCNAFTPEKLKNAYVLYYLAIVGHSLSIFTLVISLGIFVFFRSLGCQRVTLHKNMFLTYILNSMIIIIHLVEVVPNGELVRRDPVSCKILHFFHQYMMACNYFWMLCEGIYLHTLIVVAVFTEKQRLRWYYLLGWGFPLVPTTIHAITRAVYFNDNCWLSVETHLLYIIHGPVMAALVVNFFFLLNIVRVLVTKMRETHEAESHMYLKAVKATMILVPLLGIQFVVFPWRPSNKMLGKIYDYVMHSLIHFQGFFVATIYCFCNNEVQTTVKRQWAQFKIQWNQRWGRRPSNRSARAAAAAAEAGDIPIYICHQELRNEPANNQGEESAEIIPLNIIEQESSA
T1 sequence (O60896 24-148 partner): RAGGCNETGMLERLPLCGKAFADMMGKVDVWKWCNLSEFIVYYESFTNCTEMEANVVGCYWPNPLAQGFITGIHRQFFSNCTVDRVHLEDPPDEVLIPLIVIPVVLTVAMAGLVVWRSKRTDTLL
Assay type: cell-based
Description: The experiment was intended to detect the activity or efficacy of the amylin derivatives on a human amylin receptor in vitro by luciferase assay.
50 μL of growth medium (F12 medium containing 10% FBS) was added into each well of a white 96-well plate, and the stably transfected amylin/CRE-lue CHO cells were inoculated into the white 96-well plate at a density of about 20,000 cells/well for activity determination.

| pEC50 | SMILES |
| --- | --- |
| 9.95 | CC[C@H](C)[C@H](NC(=O)[C@@H]1CCCN1C(=O)[C@H](CC(=O)O)NC(=O)[C@H](CC(C)C)NC(=O)[C@H](CC(N)=O)NC(=O)[C@H](CC(N)=O)NC(=O)[C@H](CO)NC(=O)[C@H](CO)NC(=O)[C@H](Cc1c[nH]cn1)NC(=O)[C@H](CCCNC(=N)N)NC(=O)[C@H](CC(C)C)NC(=O)[C@H](Cc1ccccc1)NC(=O)[C@H](CC(=O)O)NC(=O)[C@H](C)NC(=O)[C@H](CC(C)C)NC(=O)[C@H](CCCNC(=N)N)NC(=O)[C@H](CCC(N)=O)NC(=O)[C@@H](NC(=O)[C@H](C)NC(=O)[C@@H]1CSSC[C@H](NC(=O)[C@H](CCCCN)NC(=O)CC[C@H](NC(=O)CCCCCCCCCCCCCCCCCCC(=O)O)C(=O)O)C(=O)N[C@@H](CC(N)=O)C(=O)N[C@@H]([C@@H](C)O)C(=O)N[C@@H](C)C(=O)N[C@@H]([C@@H](C)O)C(=O)N1)[C@@H](C)O)C(=O)N[C@@H](CC(C)C)C(=O)N1CCC[C@H]1C(=O)N1CCC[C@H]1C(=O)N[C@H](C(=O)N[C@@H](CC(N)=O)C(=O)N[C@H](C(=O)NCC(=O)N[C@@H](CO)C(=O)N[C@@H](CC(N)=O)C(=O)N[C@H](C(=O)N1CCC[C@H]1C(N)=O)[C@@H](C)O)C(C)C)[C@@H](C)O [PD164] ({C20 diacid-γGlu}-KCNTATCATQRLADFLRHSSNNLDPILPPTNVGSNTP-NH2; disulfide 2-7 (inferred)) |
| 10.30 | CC[C@H](C)[C@H](NC(=O)[C@@H]1CCCN1C(=O)[C@H](CC(N)=O)NC(=O)[C@H](CC(C)C)NC(=O)[C@H](CC(N)=O)NC(=O)[C@H](CC(N)=O)NC(=O)[C@H](CO)NC(=O)[C@H](CO)NC(=O)[C@H](Cc1c[nH]cn1)NC(=O)[C@H](CCCNC(=N)N)NC(=O)[C@H](CC(C)C)NC(=O)[C@H](Cc1ccccc1)NC(=O)[C@H](CC(=O)O)NC(=O)[C@H](C)NC(=O)[C@H](CC(C)C)NC(=O)[C@H](CCCNC(=N)N)NC(=O)[C@H](CCC(N)=O)NC(=O)[C@@H](NC(=O)[C@H](C)NC(=O)[C@@H]1CSSC[C@H](NC(=O)[C@H](CCCCN)NC(=O)CC[C@H](NC(=O)CCCCCCCCCCCCCCCCCCC(=O)O)C(=O)O)C(=O)N[C@@H](CC(N)=O)C(=O)N[C@@H]([C@@H](C)O)C(=O)N[C@@H](C)C(=O)N[C@@H]([C@@H](C)O)C(=O)N1)[C@@H](C)O)C(=O)N[C@@H](CC(C)C)C(=O)N1CCC[C@H]1C(=O)N1CCC[C@H]1C(=O)N[C@H](C(=O)N[C@@H](CC(N)=O)C(=O)N[C@H](C(=O)NCC(=O)N[C@@H](CO)C(=O)N[C@@H](CC(N)=O)C(=O)N[C@H](C(=O)N1CCC[C@H]1C(N)=O)[C@@H](C)O)C(C)C)[C@@H](C)O [PD165] ({C20 diacid-γGlu}-KCNTATCATQRLADFLRHSSNNLNPILPPTNVGSNTP-NH2; disulfide 2-7 (inferred)) |
| 10.27 | CC[C@H](C)[C@H](NC(=O)[C@@H]1CCCN1C(=O)[C@H](CO)NC(=O)[C@H](CC(C)C)NC(=O)[C@H](CC(N)=O)NC(=O)[C@H](CC(N)=O)NC(=O)[C@H](CO)NC(=O)[C@H](CO)NC(=O)[C@H](Cc1c[nH]cn1)NC(=O)[C@H](CCCNC(=N)N)NC(=O)[C@H](CC(C)C)NC(=O)[C@H](Cc1ccccc1)NC(=O)[C@H](CC(=O)O)NC(=O)[C@H](C)NC(=O)[C@H](CC(C)C)NC(=O)[C@H](CCCNC(=N)N)NC(=O)[C@H](CCC(N)=O)NC(=O)[C@@H](NC(=O)[C@H](C)NC(=O)[C@@H]1CSSC[C@H](NC(=O)[C@H](CCCCN)NC(=O)CC[C@H](NC(=O)CCCCCCCCCCCCCCCCCCC(=O)O)C(=O)O)C(=O)N[C@@H](CC(N)=O)C(=O)N[C@@H]([C@@H](C)O)C(=O)N[C@@H](C)C(=O)N[C@@H]([C@@H](C)O)C(=O)N1)[C@@H](C)O)C(=O)N[C@@H](CC(C)C)C(=O)N1CCC[C@H]1C(=O)N1CCC[C@H]1C(=O)N[C@H](C(=O)N[C@@H](CC(N)=O)C(=O)N[C@H](C(=O)NCC(=O)N[C@@H](CO)C(=O)N[C@@H](CC(N)=O)C(=O)N[C@H](C(=O)N1CCC[C@H]1C(N)=O)[C@@H](C)O)C(C)C)[C@@H](C)O [PD166] ({C20 diacid-γGlu}-KCNTATCATQRLADFLRHSSNNLSPILPPTNVGSNTP-NH2; disulfide 2-7 (inferred)) |
| 10.39 | CC[C@H](C)[C@H](NC(=O)[C@@H]1CCCN1C(=O)[C@H](CN)NC(=O)[C@H](CC(C)C)NC(=O)[C@H](CC(N)=O)NC(=O)[C@H](CC(N)=O)NC(=O)[C@H](CO)NC(=O)[C@H](CO)NC(=O)[C@H](Cc1c[nH]cn1)NC(=O)[C@H](CCCNC(=N)N)NC(=O)[C@H](CC(C)C)NC(=O)[C@H](Cc1ccccc1)NC(=O)[C@H](CC(=O)O)NC(=O)[C@H](C)NC(=O)[C@H](CC(C)C)NC(=O)[C@H](CCCNC(=N)N)NC(=O)[C@H](CCC(N)=O)NC(=O)[C@@H](NC(=O)[C@H](C)NC(=O)[C@@H]1CSSC[C@H](NC(=O)[C@H](CCCCN)NC(=O)CC[C@H](NC(=O)CCCCCCCCCCCCCCCCCCC(=O)O)C(=O)O)C(=O)N[C@@H](CC(N)=O)C(=O)N[C@@H]([C@@H](C)O)C(=O)N[C@@H](C)C(=O)N[C@@H]([C@@H](C)O)C(=O)N1)[C@@H](C)O)C(=O)N[C@@H](CC(C)C)C(=O)N1CCC[C@H]1C(=O)N1CCC[C@H]1C(=O)N[C@H](C(=O)N[C@@H](CC(N)=O)C(=O)N[C@H](C(=O)NCC(=O)N[C@@H](CO)C(=O)N[C@@H](CC(N)=O)C(=O)N[C@H](C(=O)N1CCC[C@H]1C(N)=O)[C@@H](C)O)C(C)C)[C@@H](C)O [PD168] ({C20 diacid-γGlu}-KCNTATCATQRLADFLRHSSNNL[Dap]PILPPTNVGSNTP-NH2; disulfide 2-7 (inferred)) |
| 10.41 | CC[C@H](C)[C@H](NC(=O)[C@@H]1CCCN1C(=O)[C@H](CCN)NC(=O)[C@H](CC(C)C)NC(=O)[C@H](CC(N)=O)NC(=O)[C@H](CC(N)=O)NC(=O)[C@H](CO)NC(=O)[C@H](CO)NC(=O)[C@H](Cc1c[nH]cn1)NC(=O)[C@H](CCCNC(=N)N)NC(=O)[C@H](CC(C)C)NC(=O)[C@H](Cc1ccccc1)NC(=O)[C@H](CC(=O)O)NC(=O)[C@H](C)NC(=O)[C@H](CC(C)C)NC(=O)[C@H](CCCNC(=N)N)NC(=O)[C@H](CCC(N)=O)NC(=O)[C@@H](NC(=O)[C@H](C)NC(=O)[C@@H]1CSSC[C@H](NC(=O)[C@H](CCCCN)NC(=O)CC[C@H](NC(=O)CCCCCCCCCCCCCCCCCCC(=O)O)C(=O)O)C(=O)N[C@@H](CC(N)=O)C(=O)N[C@@H]([C@@H](C)O)C(=O)N[C@@H](C)C(=O)N[C@@H]([C@@H](C)O)C(=O)N1)[C@@H](C)O)C(=O)N[C@@H](CC(C)C)C(=O)N1CCC[C@H]1C(=O)N1CCC[C@H]1C(=O)N[C@H](C(=O)N[C@@H](CC(N)=O)C(=O)N[C@H](C(=O)NCC(=O)N[C@@H](CO)C(=O)N[C@@H](CC(N)=O)C(=O)N[C@H](C(=O)N1CCC[C@H]1C(N)=O)[C@@H](C)O)C(C)C)[C@@H](C)O [PD169] ({C20 diacid-γGlu}-KCNTATCATQRLADFLRHSSNNL[Dab]PILPPTNVGSNTP-NH2; disulfide 2-7 (inferred)) |
| 10.39 | CC[C@H](C)[C@H](NC(=O)[C@@H]1CCCN1C(=O)[C@H](CCCN)NC(=O)[C@H](CC(C)C)NC(=O)[C@H](CC(N)=O)NC(=O)[C@H](CC(N)=O)NC(=O)[C@H](CO)NC(=O)[C@H](CO)NC(=O)[C@H](Cc1c[nH]cn1)NC(=O)[C@H](CCCNC(=N)N)NC(=O)[C@H](CC(C)C)NC(=O)[C@H](Cc1ccccc1)NC(=O)[C@H](CC(=O)O)NC(=O)[C@H](C)NC(=O)[C@H](CC(C)C)NC(=O)[C@H](CCCNC(=N)N)NC(=O)[C@H](CCC(N)=O)NC(=O)[C@@H](NC(=O)[C@H](C)NC(=O)[C@@H]1CSSC[C@H](NC(=O)[C@H](CCCCN)NC(=O)CC[C@H](NC(=O)CCCCCCCCCCCCCCCCCCC(=O)O)C(=O)O)C(=O)N[C@@H](CC(N)=O)C(=O)N[C@@H]([C@@H](C)O)C(=O)N[C@@H](C)C(=O)N[C@@H]([C@@H](C)O)C(=O)N1)[C@@H](C)O)C(=O)N[C@@H](CC(C)C)C(=O)N1CCC[C@H]1C(=O)N1CCC[C@H]1C(=O)N[C@H](C(=O)N[C@@H](CC(N)=O)C(=O)N[C@H](C(=O)NCC(=O)N[C@@H](CO)C(=O)N[C@@H](CC(N)=O)C(=O)N[C@H](C(=O)N1CCC[C@H]1C(N)=O)[C@@H](C)O)C(C)C)[C@@H](C)O [PD170] ({C20 diacid-γGlu}-KCNTATCATQRLADFLRHSSNNL[Orn]PILPPTNVGSNTP-NH2; disulfide 2-7 (inferred)) |
| 10.28 | CC[C@H](C)[C@H](NC(=O)[C@@H]1CCCN1C(=O)[C@H](CCCNC(N)=O)NC(=O)[C@H](CC(C)C)NC(=O)[C@H](CC(N)=O)NC(=O)[C@H](CC(N)=O)NC(=O)[C@H](CO)NC(=O)[C@H](CO)NC(=O)[C@H](Cc1c[nH]cn1)NC(=O)[C@H](CCCNC(=N)N)NC(=O)[C@H](CC(C)C)NC(=O)[C@H](Cc1ccccc1)NC(=O)[C@H](CC(=O)O)NC(=O)[C@H](C)NC(=O)[C@H](CC(C)C)NC(=O)[C@H](CCCNC(=N)N)NC(=O)[C@H](CCC(N)=O)NC(=O)[C@@H](NC(=O)[C@H](C)NC(=O)[C@@H]1CSSC[C@H](NC(=O)[C@H](CCCCN)NC(=O)CC[C@H](NC(=O)CCCCCCCCCCCCCCCCCCC(=O)O)C(=O)O)C(=O)N[C@@H](CC(N)=O)C(=O)N[C@@H]([C@@H](C)O)C(=O)N[C@@H](C)C(=O)N[C@@H]([C@@H](C)O)C(=O)N1)[C@@H](C)O)C(=O)N[C@@H](CC(C)C)C(=O)N1CCC[C@H]1C(=O)N1CCC[C@H]1C(=O)N[C@H](C(=O)N[C@@H](CC(N)=O)C(=O)N[C@H](C(=O)NCC(=O)N[C@@H](CO)C(=O)N[C@@H](CC(N)=O)C(=O)N[C@H](C(=O)N1CCC[C@H]1C(N)=O)[C@@H](C)O)C(C)C)[C@@H](C)O [PD171] ({C20 diacid-γGlu}-KCNTATCATQRLADFLRHSSNNL[Cit]PILPPTNVGSNTP-NH2; disulfide 2-7 (inferred)) |
